Reference: PubChem BioAssay (NCI)
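Cells were grown in 96-well plates and exposed to each compound for 48 hours at five concentrations; endpoints were interpolated linearly between bracketing concentrations, or set to the highest concentration if not reached. At the TGI there is no net growth.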

Legend:
Assay in all cases: NCI-60 cell line screen, 48 h
SF-268 CNS = test system: SF-268 CNS
SN12C renal = test system: SN12C renal
OVCAR-8 ovarian = test system: OVCAR-8 ovarian
T-47D breast = test system: T-47D breast
SK-OV-3 ovarian = test system: SK-OV-3 ovarian
HOP-92 NSCLC = test system: HOP-92 NSCLC
MDA-MB-435 = test system: MDA-MB-435
EKVX NSCLC = test system: EKVX NSCLC
SK-MEL-28 melanoma = test system: SK-MEL-28 melanoma
UO-31 renal = test system: UO-31 renal
MDA-MB-231 breast = test system: MDA-MB-231 breast
HCC-2998 colon = test system: HCC-2998 colon
PC-3 prostate = test system: PC-3 prostate
MDA-N = test system: MDA-N
HCT-116 colon = test system: HCT-116 colon
M14 melanoma = test system: M14 melanoma
SF-295 CNS = test system: SF-295 CNS
K-562 leukemia = test system: K-562 leukemia
SK-MEL-5 melanoma = test system: SK-MEL-5 melanoma
CAKI-1 renal = test system: CAKI-1 renal
786-0 renal = test system: 786-0 renal
OVCAR-4 ovarian = test system: OVCAR-4 ovarian
SW-620 colon = test system: SW-620 colon
LOX IMVI melanoma = test system: LOX IMVI melanoma
KM12 colon = test system: KM12 colon
UACC-257 melanoma = test system: UACC-257 melanoma
DU-145 prostate = test system: DU-145 prostate
NCI/ADR-RES ovarian = test system: NCI/ADR-RES ovarian
IGROV1 ovarian = test system: IGROV1 ovarian
SNB-75 CNS = test system: SNB-75 CNS
MCF7 breast = test system: MCF7 breast
CCRF-CEM leukemia = test system: CCRF-CEM leukemia
MOLT-4 leukemia = test system: MOLT-4 leukemia
U251 CNS = test system: U251 CNS
SK-MEL-2 melanoma = test system: SK-MEL-2 melanoma
A549 NSCLC = test system: A549 NSCLC
OVCAR-3 ovarian = test system: OVCAR-3 ovarian
HT29 colon = test system: HT29 colon
RXF 393 renal = test system: RXF 393 renal
NCI-H23 lung = test system: NCI-H23 lung
MALME-3M melanoma = test system: MALME-3M melanoma
NCI-H226 lung = test system: NCI-H226 lung
OVCAR-5 ovarian = test system: OVCAR-5 ovarian
RPMI-8226 leukemia = test system: RPMI-8226 leukemia
COLO 205 colon = test system: COLO 205 colon
SNB-19 CNS = test system: SNB-19 CNS
SF-539 CNS = test system: SF-539 CNS
HL-60(TB) leukemia = test system: HL-60(TB) leukemia
HCT-15 colon = test system: HCT-15 colon
ACHN renal = test system: ACHN renal
BT-549 breast = test system: BT-549 breast
TK-10 renal = test system: TK-10 renal
HS 578T breast = test system: HS 578T breast
NCI-H522 lung = test system: NCI-H522 lung
HOP-62 NSCLC = test system: HOP-62 NSCLC
UACC-62 melanoma = test system: UACC-62 melanoma

SMILES: CCOC(=O)C(NC(=O)c1ccccc1)(Nc1cc(C)on1)C(F)(F)F (stereo unspecified)
- TGI (SF-268 CNS): > 100 µM
- TGI (SN12C renal): > 100 µM
- TGI (OVCAR-8 ovarian): > 100 µM
- TGI (T-47D breast): > 100 µM
- TGI (SK-OV-3 ovarian): > 100 µM
- TGI (HOP-92 NSCLC): > 100 µM
- TGI (MDA-MB-435): > 100 µM
- TGI (EKVX NSCLC): > 100 µM
- TGI (SK-MEL-28 melanoma): > 100 µM
- TGI (UO-31 renal): > 100 µM
- TGI (MDA-MB-231 breast): 56.2 µM
- TGI (HCC-2998 colon): > 100 µM
- TGI (PC-3 prostate): > 100 µM
- TGI (MDA-N): > 100 µM
- TGI (HCT-116 colon): > 100 µM
- TGI (M14 melanoma): > 100 µM
- TGI (SF-295 CNS): > 100 µM
- TGI (K-562 leukemia): > 100 µM
- TGI (SK-MEL-5 melanoma): > 100 µM
- TGI (CAKI-1 renal): > 100 µM
- TGI (786-0 renal): > 100 µM
- TGI (OVCAR-4 ovarian): > 100 µM
- TGI (SW-620 colon): > 100 µM
- TGI (LOX IMVI melanoma): > 100 µM
- TGI (KM12 colon): > 100 µM
- TGI (UACC-257 melanoma): > 100 µM
- TGI (DU-145 prostate): > 100 µM
- TGI (NCI/ADR-RES ovarian): > 100 µM
- TGI (IGROV1 ovarian): > 100 µM
- TGI (SNB-75 CNS): > 100 µM
- TGI (MCF7 breast): > 100 µM
- TGI (CCRF-CEM leukemia): > 100 µM
- TGI (MOLT-4 leukemia): > 100 µM
- TGI (U251 CNS): > 100 µM
- TGI (SK-MEL-2 melanoma): > 100 µM
- TGI (A549 NSCLC): > 100 µM
- TGI (OVCAR-3 ovarian): > 100 µM
- TGI (HT29 colon): > 100 µM
- TGI (RXF 393 renal): > 100 µM
- TGI (NCI-H23 lung): > 100 µM
- TGI (MALME-3M melanoma): > 100 µM
- TGI (NCI-H226 lung): > 100 µM
- TGI (OVCAR-5 ovarian): > 100 µM
- TGI (RPMI-8226 leukemia): > 100 µM
- TGI (COLO 205 colon): > 100 µM
- TGI (SNB-19 CNS): > 100 µM
- TGI (SF-539 CNS): > 100 µM
- TGI (HL-60(TB) leukemia): > 100 µM
- TGI (HCT-15 colon): > 100 µM
- TGI (ACHN renal): > 100 µM
- TGI (BT-549 breast): > 100 µM
- TGI (TK-10 renal): > 100 µM
- TGI (HS 578T breast): > 100 µM
- TGI (NCI-H522 lung): > 100 µM
- TGI (HOP-62 NSCLC): > 100 µM
- TGI (UACC-62 melanoma): > 100 µM
